The text below walks through data of patent US20040058425A1, “Crystal structure” (priority 2001, published 2004).

Assay [1] deals with PDHK. The experiment in a line: Assay to measure whether compounds inhibit PDHK activity (kinase reaction with porcine PDH and MgATP, then residual PDH activity by NAD reduction at 340 nm). As to conditions: result in words. Format: biochemical. As for the experimental part:
Compounds were assessed for inhibition of PDHK in an assay adapted from Espinal, J. et al (1995) Drug Development Res. 35, 130-136. In the first part of the assay, compounds were incubated with porcine PDH (Sigma P-7032) and MgATP, and the reaction was stopped after defined intervals. In the second part of the assay, the residual PDH activity was measured by monitoring the rate of reduction of NAD at 340 nm.
The assay was performed in flat-bottom 96-well microtitre plates, using a final volume of 50 μl for the first part of the assay (kinase reaction), and 250 μl for the PDH reaction. At first, 10 μl test compound in a suitable diluent, 20 μl kinase buffer (20 mM potassium phosphate, pH7.0, 4 mM MgCl2, 4 mM dithiothreitol) and 10 μl PDH (Sigma, P-7032, diluted with water to a final concentration of 1.83 mg/ml) were mixed and incubated for 10 min; then 10 μl ATP solution (125 μM in kinase buffer) was added to start the reaction.
The incubations were done at 30° C. The kinase reaction was terminated after defined intervals (usually 0, 10, 20, 30, 60, and 90 min) by initiating the PDH reaction. […] Kinetic readings were then taken at 340 nm conducted at 12 sec intervals for 20 min with shaking for 1 sec before each reading was taken, in a SpectraMax plate reader. […]

In assay [2] the test system is PDHK. The experiment in a line: Kinase activity of PDHK using a PDHK specific substrate peptide. Format: biochemical. Particulars: data not shown.

Take “N-{4-[(ethylanilino)sulfonyl]-2-methylphenyl}-3,3,3-trifluoro-2-hydroxy-2-methylpropanamide [Compound 2]”: the “ATP dependent inhibition of the PDH complex” value in assay [1] was “prevent ATP dependent inhibition of the PDH complex”. Further, the “inhibition of the kinase activity of PDHK” value in assay [2] is “do not inhibit the kinase activity of PDHK”.
As for `CC1CN(C(=O)C(C)(O)C(F)(F)F)C(C)CN1C(=O)c1ccc(C#N)cc1` (stereo not shown) [Compound 1], the “ATP dependent inhibition of the PDH complex” value in assay [1] was “prevent ATP dependent inhibition of the PDH complex”. In addition, the “inhibition of the kinase activity of PDHK” value in assay [2] is “do not inhibit the kinase activity of PDHK”.
